Measured values: publication PMC6105163, “Abaloparatide Exerts Bone Anabolic Effects with Less Stimulation of Bone Resorption-Related Factors: A Comparison with Teriparatide” (Calcified Tissue International, 2018)
Where two headings read alike, the source gives them in different places.

Columns and labels:
OVX rats [1] = experiment: Lumbar spine (L4-L5) BMD in OVX rats; assay type: in vivo, Sprague–Dawley rats (female); settings: once daily s.c. for 28 days, BMD on day 26 (PIXImus2), vs OVX, n = 8 or 9
From the text: (§1) Ten-week-old female Sprague–Dawley rats were purchased from Charles River Laboratories Japan, Inc. (Kanagawa, Japan) and ovariectomized at 12 weeks old. Thirty-five days after surgery, rats received once daily subcutaneous injection of ABL, TPTD, or vehicle (saline containing 0.1% heat-inactivated rat serum) for 28 days. Day 0 indicates the day when administration was started. On day 26, rats were anesthetized with intraperitoneally administered pentobarbital sodium and the lumbar spine (L4 and L5) BMD was measured with a PIXImus2 (GE Healthcare, Chicago, IL). Blood (collected from the tail vein) and urine samples were obtained on day 28. Prior to collection, rats were fasted for 15–17 h. Rats were euthanized after the blood and urine collection, and the lumbar spine was removed for the measurement of bone strength. All experimental procedures were approved by the Animal Care and Use Committee of Teijin Institute for Bio-Medical Research.

OVX rats [2] = experiment: L4 vertebral bone strength in OVX rats; assay type: in vivo, Sprague–Dawley rats (female); settings: once daily s.c. for 28 days, day 28, vs OVX, n = 8 or 9
From the text: as §1
L4 was isolated from the lumbar spine. The height of the vertebral body was measured with a vernier caliper. To obtain vertebral body specimens, the cranial and caudal ends of the vertebral body were cut with a diamond saw to a height of 4 mm. Bone strength was measured with a MZ-500S (MARUTO Testing Machine Company, Tokyo, Japan).

OVX rats [3] = experiment: Bone formation marker serum P1NP in OVX rats; assay type: in vivo, Sprague–Dawley rats (female); settings: once daily s.c., day 28, vs OVX, n = 8 or 9
From the text: as §1
Serum P1NP concentration was measured with a Rat/Mouse PINP EIA kit (Immunodiagnostic Systems, Boldon, UK). Urine DPD concentration was measured with an Osteolinks DPD kit (Quidel, San Diego, CA, USA). Urine creatinine (Cr) concentration was measured with a 7180 Autoanalyzer (Hitachi High-Technologies Corporation, Tokyo, Japan).

SaOS-2 [4] = experiment: Bone resorption-related factor gene expression (qRT-PCR); assay type: cell-based, human; settings: 100 nmol/L; for M-CSF mRNA expression / OPG mRNA expression / RANKL mRNA expression / RANKL/OPG mRNA expression: continuous treatment (Fig. 2b); for expression of bone resorption-related factors such as RANKL/OPG and M-CSF: human osteoblastic cells
Procedure: (§2) SaOS-2 was cultured in 48-well plates at a density of 5 × 10^4 cells/well in DM for 10 days. The medium was replaced with serum-free DM for culture under starvation conditions. Twenty-four hours after the start of starvation, cells were treated with ABL and TPTD at a concentration of 100 nmol/L. Six hours after treatment, cells were washed with PBS twice, and cultured with peptide-free or peptide-containing medium for the rest of the experimental period.
(§3) Cells were lysed and total RNA was extracted using an RNeasy Mini Kit (Qiagen, Valencia, CA, USA). RNA was reverse-transcribed into cDNA using the SuperScript III First-Strand Synthesis System for RT-PCR (Invitrogen, Carlsbad, CA, USA). Quantitative RT-PCR was performed on a 7500 Real-Time PCR System (Applied Biosystems) using Power SYBR Green PCR Master Mix (Thermo Fisher Scientific, Waltham, MA, USA). The primers used in this study were as follows: 5′-CGATGGTGGATGGCTCATG-3′ (forward) and 5′-ACCAGATGGGATGTCGGTG-3′ (reverse) for RANKL, 5′-[…]-3′ (forward) and 5′-[…]-3′ (reverse) for M-CSF, 5′-[…]-3′ (forward) and 5′-[…]-3′ (reverse) for OPG, 5′-[…]-3′ (forward) and 5′-[…]-3′ (reverse) for IGF1, 5′-[…]-3′ (forward) and 5′-[…]-3′ (reverse) for osteocalcin, 5′-[…]-3′ (forward) and 5′-[…]-3′ (reverse) for DMP1, 5′-[…]-3′ (forward) and 5′-[…]-3′ (reverse) for SOST, 5′-[…]-3′ (forward) and 5′-[…]-3′ (reverse) for DKK1, 5′-GTGAAGGTCGGAGTCAACG-3′ (forward) and 5′-TGAGGTCAATGAAGGGGTC-3′ (reverse) for GAPDH.

SaOS-2 [5] = experiment: M-CSF protein secretion (ELISA); assay type: cell-based, human; settings: 100 nmol/L, n = 3; for M-CSF protein secretion: continuous treatment (Fig. 2c), ABL and TPTD did not differ significantly
Procedure: as §2
(§4) Human Quantikine M-CSF, Sclerostin, and DKK1 ELISA kits (R&D Systems, Minneapolis, MN, USA) were used to quantify M-CSF, sclerostin, and DKK1, respectively, in the cell supernatants according to the manufacturer’s instructions.

SaOS-2 [6] = experiment: Bone formation-related factor gene expression (qRT-PCR); assay type: cell-based, human; settings: for IGF-1 gene expression / osteocalcin gene expression: 100 nmol/L once daily 11 days, 6-h exposure per 24-h cycle (Fig. 3b), n = 3; for IGF-1 and osteocalcin expression, continuous treatment: data not shown
Procedure: SaOS-2 was cultured in 12-well plates at a density of 2 × 10^5 cells/well in DM. Concomitant with the initiation of cell differentiation, cells were treated with 100 nmol/L of ABL and TPTD once daily for 11 days. The peptide exposure was limited to the first 6 h of the 24-h incubation cycle, and the medium was replaced with peptide-free medium for the rest of the cycle after washing with PBS twice.
as §3

osteocyte-like SaOS-2 [7] = experiment: WNT signaling antagonist gene expression (qRT-PCR); assay type: cell-based, human; settings: 100 nmol/L, n = 3; for DKK1 (gene expression and protein secretion) / sclerostin (gene expression and protein secretion): continuous treatment (Fig. 4e, f), qRT-PCR and ELISA; for DKK1 gene expression / sclerostin gene expression: treatment limited to first 6 h (Fig. 4c), day 30 cells
Procedure: (§5) SaOS-2 was cultured in 48-well plates at a density of 5 × 10^4 cells/well in DM for 30 days. Cells were treated with ABL and TPTD at a concentration of 100 nmol/L. Six hours after treatment, cells were washed with PBS twice, and cultured with peptide-free or peptide-containing medium for the rest of the experimental period.
as §3

osteocyte-like SaOS-2 [8] = experiment: Sclerostin and DKK1 protein secretion (ELISA); assay type: cell-based, human; settings: 100 nmol/L, transient (Fig. 4d); efficacies of ABL and TPTD not significantly different; n = 3
Procedure: as §5, §4

PTH1R = settings: ref [22]; cited from earlier work
From the text: It is unclear why ABL stimulates lower expression of bone resorption-related factors than TPTD with transient treatment only. Recently, it was reported that PTH1R has at least two types of active conformations and that the binding conformation selectivity differs between ABL and TPTD [21, 22]. This difference further affects the duration of the downstream signaling. […] We therefore thought that the difference in bone resorption-related factors could arise from the d ...

[9] = cited from earlier work

| Substance | lumbar spine BMD (OVX rats [1]) | lumbar spine (L4) bone strength (OVX rats [2]) | serum P1NP (OVX rats [3]) | M-CSF mRNA expression (SaOS-2 [4]; n = 3) | OPG mRNA expression (SaOS-2 [4]; n = 3) | RANKL mRNA expression (SaOS-2 [4]; n = 3) | RANKL/OPG mRNA expression (SaOS-2 [4]; n = 3) | expression of bone resorption-related factors such as RANKL/OPG and M-CSF (SaOS-2 [4]) | M-CSF protein secretion (SaOS-2 [5]) | IGF-1 gene expression (SaOS-2 [6]) | osteocalcin gene expression (SaOS-2 [6]) | IGF-1 and osteocalcin expression, continuous treatment (SaOS-2 [6]) | DKK1 (gene expression and protein secretion) (osteocyte-like SaOS-2 [7]) | sclerostin (gene expression and protein secretion) (osteocyte-like SaOS-2 [7]) | DKK1 gene expression (osteocyte-like SaOS-2 [7]) | sclerostin gene expression (osteocyte-like SaOS-2 [7]) | DKK1 protein secretion (osteocyte-like SaOS-2 [8]) | sclerostin protein secretion (osteocyte-like SaOS-2 [8]) | duration of cAMP production after wash-out of unbound ligand (PTH1R) | further results |
| --- | --- | --- | --- | --- | --- | --- | --- | --- | --- | --- | --- | --- | --- | --- | --- | --- | --- | --- | --- | --- |
| [Glu^22,25, Leu^23,28,31, Aib^29, Lys^26,30] human PTHrP(1–34)–NH2 [Abaloparatide] | significantly increased | significantly increased | significantly increased | similarly promoted | inhibited | similarly promoted | similarly promoted | increased | increased | increased | increased | could hardly detect | similarly inhibited | similarly inhibited | similarly suppressed | similarly suppressed | inhibited | inhibited | transient | M-CSF expression, ABL vs TPTD (SaOS-2 [4]; transient 6-h treatment): less than TPTD; RANKL/OPG expression, ABL vs TPTD (SaOS-2 [4]; transient 6-h treatment): less than TPTD; bone resorption-related factors mRNA, ABL vs TPTD (SaOS-2 [4]; transient treatment (first 6 h, then washed out) (Fig. 2d), n = 3): significantly attenuated as compared with TPTD; M-CSF protein secretion, ABL vs TPTD (SaOS-2 [5]; transient treatment (first 6 h) (Fig. 2e)): significantly less with ABL treatment than with TPTD; IGF-1 and osteocalcin effects, ABL vs TPTD (SaOS-2 [6]; 100 nmol/L, repeating 6-h exposure cycle, 11 days (Fig. 3b)): not significantly different; half-life in humans ([9]; human, in vivo, sc): approximately an hour or less |
| human PTH(1–34) [Teriparatide] | significantly increased | significantly increased | significantly increased | similarly promoted | inhibited | similarly promoted | similarly promoted | increased | increased | increased | increased | could hardly detect | similarly inhibited | similarly inhibited | similarly suppressed | similarly suppressed | inhibited | inhibited | sustained after the unbound ligand is washed out | half-life in humans ([9]; subcutaneous injection, ref [27], [28]): approximately an hour or less |
